Experimental data as given in patent publication US11932885B2, “Use of glutamine synthetase for treating hyperammonemia” (Thoeris GmbH, priority 2017, dated 2024).

Assays:
BDL rats [1] = experiment: Ammonia blood levels in BDL rats; format: in vivo; conditions: BDL rats on hyperammonemic diet
Procedure: All experiments were performed in accordance with the Animals (Scientific Procedures) Act of 1986, which was revised according to the European Directive2010/63/EU. All animals received humane care according to the criteria outlined in the Guide for the Care and Use of Laboratory Animals (National Institutes of Health publication 86-23; revised 1985). All the animals used in these experiments were Male Sprague-Dawley rats (body weight, 250 g at the beginning of the experiments) were obtained from Charles River Laboratories (Kent, UK) and divided into 5 groups: bile duct ligated animals+ammonia+saline serum (BDL+HA+SS, n=6), bile duct ligated animals+ammonia+sodium phenylacetate (BDL+HA+SP, n=6), bile duct ligated animals+ammonia+sodium phenylacetate+glutamine synthetase (BDL+HA+SP+GS, n=5), bile duct ligated animals+ammonia+glutamine synthetase (BDL+HA+GS, n=6), sham-operated animals+glutamine synthetase (SHAM+GS, n=5). Treatment comprising SP and GS may be referred to as “COMBO”. […]
Plasma samples were collected from the leg vein at different timepoints in all groups. The timepoints were counted after the treatment with glutamine synthetase as follows: 6 hours, 24 hours, 48 hours and 5 days. […]

BDL rats [2] = experiment: Brain oedema in the prefrontal cortex of BDL rats (dry weight technique); format: in vivo; conditions: versus control without treatment
Procedure: (§1) All experiments were performed in accordance with the Animals (Scientific Procedures) Act of 1986, which was revised according to the European Directive2010/63/EU. All animals received humane care according to the criteria outlined in the Guide for the Care and Use of Laboratory Animals (National Institutes of Health publication 86-23; revised 1985). All the animals used in these experiments were Male Sprague-Dawley rats (body weight, 250 g at the beginning of the experiments) were obtained from Charles River Laboratories (Kent, UK) and divided into 5 groups: bile duct ligated animals+ammonia+saline serum (BDL+HA+SS, n=6), bile duct ligated animals+ammonia+sodium phenylacetate (BDL+HA+SP, n=6), bile duct ligated animals+ammonia+sodium phenylacetate+glutamine synthetase (BDL+HA+SP+GS, n=5), bile duct ligated animals+ammonia+glutamine synthetase (BDL+HA+GS, n=6), sham-operated animals+glutamine synthetase (SHAM+GS, n=5). Treatment comprising SP and GS may be referred to as “COMBO”.
This was measured using the dry weight technique as described previously. […] The dry weight was determined after Eppendorf's loaded with individual brain samples were dried in an oven at 60° C. for 7 days. Tissue water content was then calculated as % H2O=(1-dry wt/wet wt)×100%.

BDL rats [3] = experiment: RotaRod-Accelerod test in BDL rats; format: in vivo
Procedure: as §1
This test of motor performance consists of a motor-driven rotating rod that enables us to assess motor coordination and resistance to fatigue (Jones and Roberts 1968). […] Latency to fall off the rod and the actual rotation speed were recorded in the pre- and post-treatment conditions for all groups after 1 hour treatment.

[4] = mouse, in vivo, sc, 2.5 mg/kg
Procedure: The ELISA was conducted according to the protocol outlined by the manufacturer (Abcam PEG ELISA kit, ab133065). […] N=2 animals in each group.

Compound | ammonia levels in the blood (BDL rats [1]) | brain oedema in the prefrontal cortex (BDL rats [2]) | rotarod grip test performance (BDL rats [3]) | plasma level (PEG ELISA) [4]
O=C([O-])Cc1ccccc1.[Na+] [SP, sodium phenylacetate] | significant reduction of ammonia levels in the blood | did not statistically significantly reduce the swelling | did not lead to stastically significant effects | –
wt GS: Non-conjugated human glutamine synthetase with N-terminal His-tag and GGGGS linker (SEQ ID NO: 4), expressed in E. coli | – | – | – | very low or undetectable levels
